Laboratory results as given in patent US10370343B2, “[6,6] Fused bicyclic HDAC8 inhibitors” (FORMA Therapeutics, Inc., priority 2015, dated 2019).
pIC50: −log10 of the molar value. Where a name gives a salt, the structure may show the parent alone.

What was measured:
[1] = biological target: T1, Recombinant N-terminal GST tag full-length human HDAC8 (Homo sapiens, UniProt Q9BY41); test: HDAC8 probe binding assay, time resolved fluorescence (TRF) format; conditions: compounds grouped by IC50 range (Table 2)
T1 construct: Recombinant N-terminal GST tag full-length human HDAC8; purchased SignalChem H90-30G-1000; host or cells: baculovirus in Sf9 insect cells
T1 sequence (Q9BY41 1-377): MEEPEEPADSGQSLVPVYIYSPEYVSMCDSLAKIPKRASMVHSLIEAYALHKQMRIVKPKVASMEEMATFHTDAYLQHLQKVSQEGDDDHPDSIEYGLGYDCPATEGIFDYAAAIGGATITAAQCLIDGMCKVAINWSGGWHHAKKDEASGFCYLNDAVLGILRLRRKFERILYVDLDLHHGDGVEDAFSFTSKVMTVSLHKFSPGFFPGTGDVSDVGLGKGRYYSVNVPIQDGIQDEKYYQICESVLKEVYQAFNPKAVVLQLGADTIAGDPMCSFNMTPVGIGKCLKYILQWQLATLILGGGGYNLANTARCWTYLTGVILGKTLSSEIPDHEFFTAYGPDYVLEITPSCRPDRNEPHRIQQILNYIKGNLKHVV
Summary of the method: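 Probe-binding TRF assay using full-length N-GST human HDAC8 expressed in baculovirus-infected Sf9 cells, incubated 16 h at room temperature and read at 340 nm excitation, 485/535 nm emission. Percent inhibition was normalised to no-enzyme and DMSO controls. IC50 was obtained by 4-parameter logistic fit.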

[2] = biological target: T2, Full length human recombinant HDAC8 protein (Homo sapiens, UniProt Q9BY41); test: In vitro histone deacetylase assay: enzymatic HDAC8 electrophoretic mobility shift assay; format: biochemical; conditions: electrophoretic mobility shift assay; enzyme 1 nM; 2 μM fluorescently labeled peptide substrate RHKK(Ac)-NH2; 25° C.; 12 concentrations; read-out: HDAC8 IC50
T2 construct: Full length human recombinant HDAC8 protein was expressed in baculoviral system; made in house
T2 sequence (Q9BY41 1-377): T1 sequence (Q9BY41 1-377)

| pIC50 [1] | pIC50 [2] | Compound |
| --- | --- | --- |
| ≥ 7.60 | > 7.60 | CS(=O)(=O)c1ccc(CN2CCS(=O)(=O)c3ccc(C(=O)NO)cc32)cc1 [Compound I-82, N-hydroxy-4-(4-(methylsulfonyl)benzyl)-3,4-dihydro-2H-benzo[b][1,4]thiazine-6-carboxamide-1,1-dioxide] |
| ≥ 7.60 | > 7.60 | O=C(NO)c1ccc2c(c1)N(Cc1ccc(C(F)(F)F)cc1F)C(=O)CO2 [Compound I-274, 4-(2-fluoro-4-(trifluoromethyl)benzyl)-N-hydroxy-3-oxo-3,4-dihydro-2H-benzo[b][1,4]oxazine-6-carboxamide] |
| ≥ 7.60 | > 7.60 | O=C(NO)c1ccc2c(c1)N(Cc1cn(-c3ccccc3)nn1)C(=O)CO2 [Compound I-77, N-hydroxy-3-oxo-4-[(1-phenyl-1H-1,2,3-triazol-4-yl)methyl]-3,4-dihydro-2H-1,4-benzoxazine-6-carboxamide] |
| ≥ 7.60 | > 7.60 | O=C(NO)c1ccc2c(c1)N(Cc1ccc(Cl)cc1Cl)C(=O)CO2 [Compound I-256, 4-(2,4-dichlorobenzyl)-N-hydroxy-3-oxo-3,4-dihydro-2H-benzo[b][1,4]oxazine-6-carboxamide] |
| 7.00 to 7.60 | 7.00 to 7.60 | O=C(NO)c1ccc2c(c1)N(Cc1c(F)cccc1C(F)(F)F)C(=O)CO2 [Compound I-275, 4-(2-fluoro-6-(trifluoromethyl)benzyl)-N-hydroxy-3-oxo-3,4-dihydro-2H-benzo[b][1,4]oxazine-6-carboxamide] |
| 7.00 to 7.60 | 6.00 to 7.00 | COc1ccc(CN2C(=O)COc3ccc(C(=O)NO)cc32)c(C(F)(F)F)c1 [Compound I-249, N-hydroxy-4-(4-methoxy-2-(trifluoromethyl)benzyl)-3-oxo-3,4-dihydro-2H-benzo[b][1,4]oxazine-6-carboxamide] |
| 7.00 to 7.60 | 7.00 to 7.60 | CC(c1ccc(S(C)(=O)=O)cc1)N1CCOc2ccc(C(=O)NO)cc21 (centres unmarked) [Compound I-135, N-hydroxy-4-(1-(4-(methylsulfonyl)phenyl)ethyl)-3,4-dihydro-2H-benzo[b][1,4]oxazine-6-carboxamide] |
|  | 6.00 to 7.00 | O=C(NO)c1ccc2c(c1)N(Cc1cn3ccsc3n1)CCO2 [Compound I-21, N-hydroxy-4-(imidazo[2,1-b]thiazol-6-ylmethyl)-3,4-dihydro-2H-benzo[b][1,4]oxazine-6-carboxamide] |
|  | 7.00 to 7.60 | COc1ccc(CN2c3cc(C(=O)NO)ccc3OCC2C)cc1 (centres unmarked) [Compound I-155, N-hydroxy-4-(4-methoxybenzyl)-3-methyl-3,4-dihydro-2H-benzo[b][1,4]oxazine-6-carboxamide] |
|  | > 7.60 | O=C(NO)c1ccc2c(c1)N(Cc1cccc(C(F)(F)F)c1)C(=O)CO2 [Compound I-144, N-hydroxy-3-oxo-4-(3-(trifluoromethyl)benzyl)-3,4-dihydro-2H-benzo[b][1,4]oxazine-6-carboxamide] |
|  | 6.00 to 7.00 | COCCn1c(N2CCCc3ccc(C(=O)NO)cc32)nc2ccccc21 [Compound I-110, N-hydroxy-1-(1-(2-methoxyethyl)-1H-benzo[d]imidazol-2-yl)-1,2,3,4-tetrahydroquinoline-7-carboxamide] |
|  | < 6.00 | CN1CC(C(=O)NC2CCOCC2)Oc2ccc(C(=O)NO)cc21 (centres unmarked) [Compound I-1, N^6-hydroxy-4-methyl-N^2-(tetrahydro-2H-pyran-4-yl)-3,4-dihydro-2H-benzo[b][1,4]oxazine-2,6-dicarboxamide hydrochloride] |
|  | 7.00 to 7.60 | O=C(NO)c1ccc2c(c1)N(Cc1ccccc1)CC(C(=O)NCc1ccccc1)O2 (centres unmarked) [Compound I-6, N^2,4-dibenzyl-N^6-hydroxy-3,4-dihydro-2H-benzo[b][1,4]oxazine-2,6-dicarboxamide] |
|  | 6.00 to 7.00 | COc1ccc(CN2CCS(=O)(=O)c3cc(C(=O)NO)ccc32)cc1 [Compound I-80, N-hydroxy-4-(4-methoxybenzyl)-3,4-dihydro-2H-benzo[b][1,4]thiazine-7-carboxamide-1,1-dioxide] |
|  | < 6.00 | COc1ccc(C(=O)N2CCOc3ccc(C(=O)NO)cc32)cc1 [Compound I-113, N-hydroxy-4-(4-methoxybenzoyl)-3,4-dihydro-2H-benzo[b][1,4]oxazine-6-carboxamide] |
|  | 6.00 to 7.00 | Cc1ccc(CN2CCOc3ccc(C(=O)NO)cc32)cc1 [Compound I-117, N-hydroxy-4-(4-methylbenzyl)-3,4-dihydro-2H-benzo[b][1,4]oxazine-6-carboxamide] |
|  | < 6.00 | O=C(NO)c1ccc2c(c1)N(CC(=O)N1CCOCC1)CCO2 [Compound I-26, N-hydroxy-4-(2-morpholino-2-oxoethyl)-3,4-dihydro-2H-benzo[b][1,4]oxazine-6-carboxamide] |

| pIC50 [1] | pIC50 [2] | Compound |
| --- | --- | --- |
|  | > 7.60 | CS(=O)(=O)c1ccc(CN2C(=O)COc3ccc(C(=O)NO)cc32)c(Cl)c1 [Compound I-93, 4-(2-chloro-4-(methylsulfonyl)benzyl)-N-hydroxy-3-oxo-3,4-dihydro-2H-benzo[b][1,4]oxazine-6-carboxamide] |
|  | 7.00 to 7.60 | CS(=O)(=O)c1ccc(CN2CCOc3ccc(C(=O)NO)cc32)cc1 [Compound I-120, N-hydroxy-4-(4-(methylsulfonyl)benzyl)-3,4-dihydro-2H-benzo[b][1,4]oxazine-6-carboxamide] |
|  | 6.00 to 7.00 | COc1ccc(CN2C(=O)C3(CCCCC3)Oc3ccc(C(=O)NO)cc32)cc1 [Compound I-158, N-hydroxy-4-(4-methoxybenzyl)-3-oxo-3,4-dihydrospiro[benzo[b][1,4]oxazine-2,1′-cyclohexane]-6-carboxamide] |
|  | > 7.60 | O=C(NO)c1ccc2c(c1)N(Cc1cccc(C(F)(F)F)c1)CCS2(=O)=O [Compound I-81, N-hydroxy-4-(3-(trifluoromethyl)benzyl)-3,4-dihydro-2H-benzo[b][1,4]thiazine-6-carboxamide-1,1-dioxide] |
|  | 7.00 to 7.60 | O=C(NO)c1ccc2c(c1)N(Cc1ccc(C(F)(F)F)cc1)CCO2 [Compound I-119, N-hydroxy-4-(4-(trifluoromethyl)benzyl)-3,4-dihydro-2H-benzo[b][1,4]oxazine-6-carboxamide] |
|  | 6.00 to 7.00 | C=CCN1C(=O)COc2ccc(C(=O)NO)cc21 [Compound I-41, 4-allyl-N-hydroxy-3-oxo-3,4-dihydro-2H-benzo[b][1,4]oxazine-6-carboxamide] |
|  | < 6.00 | O=C(NO)c1ccc2c(c1)OCCN2c1nc2ccccc2[nH]1 [Compound I-109, 4-(1H-benzo[d]imidazol-2-yl)-N-hydroxy-3,4-dihydro-2H-benzo[b][1,4]oxazine-7-carboxamide] |
|  | < 6.00 | O=C(NO)c1ccc2c(c1)N(c1nc3ccccc3[nH]1)CCO2 [Compound I-108, 4-(1H-benzo[d]imidazol-2-yl)-N-hydroxy-3,4-dihydro-2H-benzo[b][1,4]oxazine-6-carboxamide] |
|  | < 6.00 | O=C(NO)c1ccc2c(c1)N(C(=O)c1ccccc1)CCO2 [Compound I-140, 4-benzoyl-N-hydroxy-3,4-dihydro-2H-benzo[b][1,4]oxazine-6-carboxamide] |
|  | < 6.00 | O=C(NO)c1ccc2c(c1)N(C(=O)N1CC3(CCOCC3)c3ccccc31)CCO2 [Compound I-156, N-hydroxy-4-(2′,3′,5′,6′-tetrahydrospiro[indoline-3,4′-pyran]-1-carbonyl)-3,4-dihydro-2H-benzo[b][1,4]oxazine-6-carboxamide] |
|  | 6.00 to 7.00 | O=C(NO)c1ccc2c(c1)OC(C(=O)NC1CCOCC1)CN2Cc1ccccc1 (centres unmarked) [Compound I-8, 4-benzyl-N^7-hydroxy-N^2-(tetrahydro-2H-pyran-4-yl)-3,4-dihydro-2H-benzo[b][1,4]oxazine-2,7-dicarboxamide] |
|  | 6.00 to 7.00 | CC(c1ccccc1Cl)N1CCOc2ccc(C(=O)NO)cc21 (centres unmarked) [Compound I-136, 4-(1-(2-chlorophenyl)ethyl)-N-hydroxy-3,4-dihydro-2H-benzo[b][1,4]oxazine-6-carboxamide] |
|  | 7.00 to 7.60 | CC(c1ccccc1)N1C(=O)COc2ccc(C(=O)NO)cc21 (centres unmarked) [Compound I-67, N-hydroxy-3-oxo-4-(1-phenylethyl)-3,4-dihydro-2H-benzo[b][1,4]oxazine-6-carboxamide] |
|  | < 6.00 | O=C(NO)c1ccc2c(c1)CCCN2c1nc2ccccc2[nH]1 [Compound I-107, 1-(1H-benzo[d]imidazol-2-yl)-N-hydroxy-1,2,3,4-tetrahydroquinoline-6-carboxamide] |
|  | 7.00 to 7.60 | O=C(NO)c1ccc2c(c1)N(Cc1ccccc1)CC(C(=O)NC1CCOCC1)O2 (centres unmarked) [Compound I-2, 4-benzyl-N^6-hydroxy-N^2-(tetrahydro-2H-pyran-4-yl)-3,4-dihydro-2H-benzo[b][1,4]oxazine-2,6-dicarboxamide] |
|  | 7.00 to 7.60 | COc1ccc(CN2C(=O)C(C)(C)Oc3ccc(C(=O)NO)cc32)c(Cl)c1 [Compound I-159, 4-(2-chloro-4-methoxybenzyl)-N-hydroxy-2,2-dimethyl-3-oxo-3,4-dihydro-2H-benzo[b][1,4]oxazine-6-carboxamide] |
|  | > 7.60 | CN1CC(C(=O)N2CC3(CC3)c3ccccc32)Oc2cc(C(=O)NO)ccc21 (centres unmarked) [Compound I-9, N-hydroxy-4-methyl-2-(spiro[cyclopropane-1,3′-indoline]-1′-carbonyl)-3,4-dihydro-2H-benzo[b][1,4]oxazine-7-carboxamide] |
